Assay results: patent publication US20130272978A1, “DIHYDROXYACETONE MONOETHERS” (MERCK PATENT GMBH, priority 2010, published 2013)

How the values were obtained:
[1] = Tanning experiment (liquid skin model); settings: for L* (Lab values after 24 hours) / a* (Lab values after 24 hours) / b* (Lab values after 24 hours): 1 mmol substance + 1 mmol DL-lysine in ethylene glycol/water, pH=7, after 24 h, UV-VIS spectrometer; for Kinetics of tanning reaction compared with DHA: documented via photos; for Coloration/shade compared with DHA: from Lab values after 24 h; for Speed of tanning reaction relative to DHA: optical assessment
Method: Tanning Experiment (Liquid Skin Model)
1 mmol of the self-tanner substance to be tested are dissolved in 94 ml of ethylene glycol and 6 ml of water (potassium hydrogenphthalate-buffered to pH=7) with 146 mg of DL-lysine (1 mmol) and stirred for 24 hrs. (=liquid skin model). The kinetics are documented via photos. After 24 h, the colour values (L*a*b* system) of the solution are measured by UV-VIS spectrometer (Varian Cary-50) in order to be able to assess the effect on the skin tones.

[2] = Solubility in cosmetic oils (Finsolv TN); type: physicochemical

Question: With `O=C(CO)COCc1ccccc1` [MBDE, 1-benzyloxy-3-hydroxypropan-2-one] as the compound, how does the “L* (Lab values after 24 hours)” value [1] read?
Answer: 42.6

Question: What about the “a* (Lab values after 24 hours)” value [1] of the same compound?
Answer: 32.0

Question: What about the “b* (Lab values after 24 hours)” value [1] of the same compound?
Answer: 70.0

Question: What about the “Kinetics of tanning reaction compared with DHA” value [1] of the same compound?
Answer: faster tanning reaction than DHA

Question: What about the “Coloration/shade compared with DHA” value [1] of the same compound?
Answer: strong shift towards a redder shade

Question: And the “Speed of tanning reaction relative to DHA” value [1]?
Answer: doubling of the speed

Question: What about the “Solubility in cosmetic oil” value [2] of the same compound?
Answer: 0.24%

Question: Which “L* (Lab values after 24 hours)” value [1] does the source give for `O=C(CO)COCC1CCCCC1` [MCHMDE, monocyclohexylmethyl-DHA ether] here?
Answer: 45.3

Question: And the “a* (Lab values after 24 hours)” value [1]?
Answer: 18.2

Question: And the “b* (Lab values after 24 hours)” value [1]?
Answer: 50.5

Question: What about the “Coloration/shade compared with DHA” value [1] of the same compound?
Answer: strong shift towards a more yellow shade

Question: What about the “Solubility in cosmetic oil” value [2] of the same compound?
Answer: 0.97%

Question: Which results are given for `CCCCC(CC)COCC(=O)CO` (centres unmarked) [MEHDE, mono-2-ethylhexyl-DHA ether]?
Answer: L* (Lab values after 24 hours) [1]: 86.5; a* (Lab values after 24 hours) [1]: 4.7; b* (Lab values after 24 hours) [1]: 24.3; Coloration/shade compared with DHA [1]: paler coloration; Solubility in cosmetic oil [2]: 2.25%

Question: Which results are given for `CCCCCCCOCC(=O)CO` [MHDE, 1-heptyloxy-3-hydroxypropan-2-one]?
Answer: L* (Lab values after 24 hours) [1]: 0.1; a* (Lab values after 24 hours) [1]: 0.4; b* (Lab values after 24 hours) [1]: 0.2; Kinetics of tanning reaction compared with DHA [1]: faster tanning reaction than DHA; Coloration/shade compared with DHA [1]: darker coloration; Speed of tanning reaction relative to DHA [1]: doubling of the speed
